Measurements taken from patent US4288609A, “Quaternary ammonium derivatives of adamantane with antimicrobic activity” (priority 1976, dated 1981).

Experiments:
Pseudom.Aer. ATCC 1014 = test: M.I.C. in vitro, gram- Pseudom. Aer. (Table 1); type: cell-based, Pseudomonas Aeruginosa
Procedure: (§1) The method for evaluating the activity in vitro against bacteria, fungi and protozoa consists in introducing calculated quantities of the substance, the activity of which it is desired to test, into culture media already inoculated with a predetermined number of test germs.
(§2) After 24 or 48 hours of incubation at 30° or 37° C., according to the micro-organism being tested, it is possible to evaluate the growth of the same in the culture broth; in this manner the minimum concentration (M.I.C.) which inhibits the growth of the micro-organisms in vitro is determined.
(§3) In table 1 there are recorded the M.I.C. values in γ/ml of the products subject of the present invention, against certain gram+ and gram- bacterial strains, some of which are pathogenic towards human beings.

[1] = system: Streptococ. Henclyt. 0203; test: M.I.C. in vitro, gram+ Streptococ. Henclyt. (Table 1); type: cell-based
Procedure: as §1, §2, §3

[2] = system: Candida Pseudotrop. ATCC 2512; test: MIC yeasts, Candida pseudotropicalis (Table 2); type: cell-based; settings: Sabourand broth
Procedure: as §1, §2
(§4) Inoculation with Candida albicans or Candida pseudotropicalis was made by diluting cultures grown for 24 h at 30° C. (cellular density inoculated 10^3 /ml).
(§5) For the fungi Sabourand broth was used as a culture medium, whilst for the protozoa Kupferberg Trichomonas broth with 5% of horse serum was used.

[3] = system: Trych. Mentagr. 1st.Pastuer; test: MIC mildews, Trichophyton mentagrophytes (Table 2); type: cell-based; settings: Sabourand broth
Procedure: as §1, §2
(§6) Inoculation with Trichophyton mentagrophytes and Microsporum canis was effected in a ratio of 1% of the volume of medium used.
as §5

Trich. Foetus ISM 66/23 = test: MIC protozoa, Trichomonas foetus (Table 2); type: cell-based; settings: +10% serum (head); Kupferberg Trichomonas broth with 5% of horse serum
Procedure: as §1, §2
(§7) Inoculation with Trichomonas vaginalis and Trichomonas foetus, obtained from cultures transplanted every other day to make them lively, was effected in a ratio of 3.5% of the volume of medium used.
as §5

Esch. Coli. SKF 12140 = test: M.I.C. in vitro, gram- Esch. Coli (Table 1); type: cell-based, Escherichia Coli
Procedure: as §1, §2, §3

Staph.Aureus Tour = test: M.I.C. in vitro, gram+ Staph. Aureus (Table 1); type: cell-based, Staphylococcus Aureus
Procedure: as §1, §2, §3

[4] = system: Nicrosporum Canis ATCC 11621; test: MIC mildews, Microsporum canis (Table 2); type: cell-based; settings: Sabourand broth
Procedure: as §1, §2, §6, §5

Klens. Pneum. ISM = test: M.I.C. in vitro, gram- Klens. Pneum. (Table 1); type: cell-based
Procedure: as §1, §2, §3

Candida Albic. SKF 2270 = test: MIC yeasts, Candida albicans (Table 2); type: cell-based; settings: Sabourand broth
Procedure: as §1, §2, §4, §5

Diplococcus Pneum. ISM = test: M.I.C. in vitro, gram+ Diplococcus Pneum. (Table 1); type: cell-based
Procedure: as §1, §2, §3

mice = test: Acute oral toxicity in mice (Table 4); settings: oral, mice, 14 days
Procedure: The substances were administered orally to groups of 10 female mice CF1 of average weight of about 20 grams, in aqueous solution and in such way that the total volume administered would be in each case 1 ml/100 g of weight.

Proteus Vulc. ATCC 881 = test: M.I.C. in vitro, gram- Proteus Vulc. (Table 1); type: cell-based
Procedure: as §1, §2, §3

[5] = system: Trich. Vaginalis ISM 66/22; test: MIC protozoa, Trichomonas vaginalis (Table 2); type: cell-based; settings: +10% serum (head); Kupferberg Trichomonas broth with 5% of horse serum
Procedure: as §1, §2, §7, §5

| SMILES | M.I.C. (Pseudom.Aer. ATCC 1014; +10% serum) [µg/mL] | M.I.C. (Pseudom.Aer. ATCC 1014; without serum) [µg/mL] | M.I.C. ([1]; +10% serum) [µg/mL] | M.I.C. ([1]; without serum) [µg/mL] | MIC ([2]; +10% serum) [µg/mL] | MIC ([2]; without serum) [µg/mL] | MIC ([3]; +10% serum) [µg/mL] | MIC ([3]; without serum) [µg/mL] | MIC (Trich. Foetus ISM 66/23) [µg/mL] | M.I.C. (Esch. Coli. SKF 12140; +10% serum) [µg/mL] | M.I.C. (Esch. Coli. SKF 12140; without serum) [µg/mL] | M.I.C. (Staph.Aureus Tour; +10% serum) [µg/mL] | M.I.C. (Staph.Aureus Tour; without serum) [µg/mL] | MIC ([4]; +10% serum) [µg/mL] | MIC ([4]; without serum) [µg/mL] | M.I.C. (Klens. Pneum. ISM; +10% serum) [µg/mL] | M.I.C. (Klens. Pneum. ISM; without serum) [µg/mL] | MIC (Candida Albic. SKF 2270; +10% serum) [µg/mL] | MIC (Candida Albic. SKF 2270; without serum) [µg/mL] | M.I.C. (Diplococcus Pneum. ISM; +10% serum) [µg/mL] | further results |
| --- | --- | --- | --- | --- | --- | --- | --- | --- | --- | --- | --- | --- | --- | --- | --- | --- | --- | --- | --- | --- | --- |
| CCCCCCCCCC[N+](CC)(CC)CCNC(=O)C12CC3CC(CC(C3)C1)C2 [Example 10, n-Decyl-diethyl-(1-adamantane-carbonylamido)-ethyl-ammonium chloride] | > 100 | 50 | 5 | 0.5 | 50 | 2 | 50 | 0.5 | 5 | 100 | 10 | 10 | 0.2 | 50 | 0.5 | 100 | 10 | 50 | 0.5 | 10 | M.I.C. (Diplococcus Pneum. ISM; without serum): 2 µg/mL; LD50 (mice; 20160 min): 1050 mg/kg; M.I.C. (Proteus Vulc. ATCC 881; +10% serum): 100 µg/mL; M.I.C. (Proteus Vulc. ATCC 881; without serum): 10 µg/mL; MIC [5]: 10 µg/mL |
| CCCCCCCCCC[N+](C)(C)CCOC(=O)C12CC3CC(CC(C3)C1)C2 (single isomer, unassigned) [Example 2, n-Decyl-dimethyl-(1-adamantane-carboxy)-ethyl-ammonium chloride] | 100 | 50 | 1 | 0.2 | 50 | 0.5 | 20 | 0.5 | 10 | 100 | 10 | 5 | 0.2 | 20 | 0.5 | 100 | 20 | 50 | 5 | 10 | M.I.C. (Diplococcus Pneum. ISM; without serum): 2 µg/mL; LD50 (mice): 1020 mg/kg; M.I.C. (Proteus Vulc. ATCC 881; +10% serum): 100 µg/mL; M.I.C. (Proteus Vulc. ATCC 881; without serum): 20 µg/mL; MIC [5]: 20 µg/mL |
